According to article PMC8437142 (The Journal of physiology, 2021):

How the values were obtained:
opioid receptors = conditions: ref Lewis et al., 2010; Doyle & Murphy, 2018; cited from earlier work
[1] = Serum morphine and metabolites by UPLC-MS/MS after s.c. morphine; conditions: rat, sc, 4 mg/kg

Row | SMILES | affinity for opioid receptors (opioid receptors) | concentration at 4.5 h [1] [ng/mL]
1 | CN1CC[C@]23c4c5ccc(O[C@@H]6O[C@H](C(=O)O)[C@@H](O)[C@H](O)[C@H]6O)c4O[C@H]2[C@@H](O)C=C[C@H]3[C@H]1C5 [Morphine-3-glucuronide, morphine-3-glucuronide] | no affinity | –
2 | CN1CC[C@]23c4c5ccc(O)c4O[C@H]2[C@@H](O[C@@H]2O[C@H](C(=O)O)[C@@H](O)[C@H](O)[C@H]2O)C=C[C@H]3[C@H]1C5 [Morphine-6-glucuronide, morphine-6-glucuronide] | – | < 1
